Literature values as cited in Sander's compilation of Henry's law constants (doi:10.2175/wer.65.7.2).

assay: Henry solubility constant Hcp at 294 K (mol/(m3 Pa)); details: reference: Smith et al. (1993); cited value

| Compound | Henry solubility constant Hcp at 294 K |
| --- | --- |
| c1ccc2c(c1)ccc1ccccc12 [phenanthrene] | 0.25 |

assay: Henry solubility constant Hcp at 298.15 K (mol/(m3 Pa)); details: reference: Smith et al. (1993); cited value

| Compound | Henry solubility constant Hcp |
| --- | --- |
| c1ccc2c(c1)-c1ccc3ccc4cccc5cc-2c1c3c45 [indeno[1,2,3-cd]pyrene] | 140 |
| c1ccc2c(c1)-c1cccc3cccc-2c13 [benzo[jk]fluorene] | 1.5 |
| Cc1ccc(O)c(C)c1 [1-hydroxy-2,4-dimethylbenzene] | 0.58 |
| c1ccc2cc3ccccc3cc2c1 [anthracene] | 0.11 |
| c1ccc2c(c1)cc1ccc3cccc4ccc2c1c34 [benzo[a]pyrene] | 20 |
| c1ccc2c(c1)-c1cccc3c1c-2cc1ccccc13 [benzo[b]fluoranthene] | 0.83 |
| c1cc2c3c(cccc3c1)CC2 [acenaphthene] | 0.041 |
| c1ccc2c(c1)ccc1c3ccccc3ccc21 [chrysene] | 9.4 |
| c1ccc2c(c1)Cc1ccccc1-2 [2,3-benzindene] | 0.084 |
| c1ccc2ccccc2c1 [naphthalene] | 0.02 |
| c1ccc2cc3c(cc2c1)-c1cccc2cccc-3c12 [benzo[k]fluoranthene] | 0.25 |
| c1ccc2c(c1)ccc1cc3c(ccc4ccccc43)cc12 [dibenz[a,h]anthracene] | 140 |
| c1cc2ccc3ccc4ccc5cccc6c(c1)c2c3c4c56 [benzo[ghi]perylene] | 180 |
| C1=Cc2cccc3cccc1c23 [acenaphthylene] | 0.087 |

assay: Henry solubility constant Hcp at 293 K (mol/(m3 Pa)); details: reference: Smith et al. (1993); cited value

| Compound | Henry solubility constant Hcp at 293 K |
| --- | --- |
| c1ccccc1 [benzene] | 0.0018 |
| Cc1ccccc1 [methylbenzene] | 0.0017 |
